Data set [1] is described as follows: Mouse PK of G7883, IP in MCT vehicle. Format: in vivo, female NSG mice. The note with it: for AUC(0-t) / Cmax / Tmax / half-life: female, NSG, plasma; for half-life: ip. Here is the method: A total of 0.6% w/v Methylcellulose, 0.2% w/v Tween 80 in water (MCT) was prepared by slowly adding Methylcellulose (Methylocel A15 LV; CAS 9004-67-5, Part ID: 64605-500G-F 27.5-31.5% Methoxyl basis, Sigma-Aldrich, St. Louis, MO, USA) in small portions to prevent clumping while stirring into water at 70–80 °C. Once a homogeneous suspension formed, Tween 80 (Polysorbate 80; CAS#9005-65-6 (Polyoxyethylene (20) Sorbitan Monooleate; Tween 80) Part ID: PO138, Spectrum Chemical, New Brunswick, NJ, USA) was added and stirred until fully dissolved. Vehicle was filtered through 0.22 µm PES (Corning REF no. 431098) prior to adding to the compound for dosing. Respective compound was added based on the target concentration to the MCT vehicle and stirred at 35 °C until the power was well-dispersed. Formulations were homogenized through a polytron homogenizer and then sonicated in a water bath sonicator until a homogeneous suspension was achieved.
G7883 was dosed in three female NSG mice in-house with body weight ranging from 20 to 25 g. Three mice were given an IP dose of G7883 formulated in the MCT vehicle at 50 mpk and 150 mpk with a 5 mL/kg dosing volume. A total of 10 µL of blood was collected serially at 0.25, 0.5, 1, 3, 7, and 24 h post-dose and diluted in 40 µL of the potassium K2EDTA water. The frozen blood samples were stored at −70 °C or lower until analysis.
All plasma and cell media concentrations of G7883 and G6893 were determined using liquid chromatography–tandem mass spectrometry after protein precipitation with acetonitrile and injection of the supernatant onto the column (Waters ACQUITY UPLC BEH C18 1.7 μm, 2.1 × 50 mm for G7883 and G6893). The aqueous mobile phase was 0.1% formic acid, 2 mM ammonium formate in water/acetonitrile (v:v, 95:5), and the organic mobile phase was 0.1% formic acid, 2 mM ammonium formate in acetonitrile/water (v:v, 95:5). An AB Sciex API 4000 Triple Quad instrument was used for detecting G7883 and G6893 (Figure S2). The electrospray ionization source in both columns was operated in the positive ion and multiple reaction monitoring (MRM) detection modes. The MRM transitions for G7883 and G6893 were m/z 462.2 (Q1) and 253.10 (Q3) and m/z 454.2 (Q1) and 325.9 (Q3), respectively. The dynamic range of both assays was 0.50–50.0 ng/mL, and the total run time was 1.6 min. The lower limit of quantitation of the assay was […], and the dilution quality control concentration was set at 10 ng/mL with acceptance criteria for accuracy and precision of 25%.
All plasma and cell media concentrations of G7883 were determined using liquid chromatography–tandem mass spectrometry after protein precipitation with acetonitrile and injection of the supernatant onto the column (Phenomenex Kinetex XB-C18, 30 × 2.1 mm, 2.6 µm). The aqueous mobile phase was 10 mM of ammonium formate in water, and the organic mobile phase was 0.1% formic acid in acetonitrile. An AB Sciex API 5500 Triple Quad instrument was used for detecting G7883. The electrospray ionization source in both columns was operated in the positive ion and MRM detection modes. The MRM transitions for G7883 were m/z 462.2 (Q1) and 253.10 (Q3), respectively. The dynamic range of the assay was 0.50–50.0 ng/mL, and the total run time was 2 min. The lower limit of quantitation of the assay was […], and the dilution quality control concentration was set at 10 ng/mL with acceptance criteria for accuracy and precision of 25%.

A short description of data set [2]: Vehicle screening for solution or suspension formulations. Format: physicochemical. Here is the method:
Based on the target concentration, G7883 was screened at 3.3 mg/mL in three different vehicles of 100%PEG400, 10%DMSO in 90%PEG400, and 20%DMSO in 80%PEG400 to generate a stable solution. […] A total of 50% DMSO is the maximum amount compatible with the iPRECIO pump system. Based on the target concentration, G6893 was screened at 5 mg/mL in four different vehicles as follows: 100% PEG400, 20% DMSO in 80% PEG400, 20% DMA and 40% PG in 40% PEG400, and 10% EtOH and 20% HPbCD in 70% water at pH 4.5. G6893 achieved a solution at the target concentration of 5 mg/mL in 100% PEG400 and maintained a solution without precipitation after dilution in PBS buffer.
G7883 was screened in different oil vehicles including corn, coconut, paraffin, soybean, and sunflower oil.

Setting [3] is: 50 mg/kg, IP 50 mpk, MCT vehicle, mean.
[4] abbreviates: 150 mg/kg, IP 150 mpk, MCT vehicle, mean.

The structures appear in SMILES notation.

In general, AUC(0-t) refers to exposure summed from dosing to a finite time, without extrapolation to infinity. A low value points to less exposure. The term Cmax denotes the highest concentration seen after dosing. As usually defined, the Tmax is the time from dosing to the highest level. For orientation: half-life means the time in which the quantity being followed falls by half. A low value points to fast loss. Consider `Cc1nccnc1-c1nn2c(=O)cc(-c3ccc(C4CCCCC4)cc3)[nH]c2c1C(=O)N1CC(CF)C1` [G7883, 5-(4-cyclohexylphenyl)-3-[3-(fluoromethyl)azetidine-1-carbonyl]-2-(3-methylpyrazin-2-yl)-4H-pyrazolo[1,5-a]pyrimidin-7-one], for which the “increase of AUC coverage, IP versus PO” value in data set [1] (IP 150 mpk compared with PO 250 mpk) is on record as “approximately 10 fold”. In data set [1] (IP 150 mpk, MCT vehicle, mean, 150 mg/kg), this molecule gave a t1/2 of 1.53 h. For the same molecule, in data set [1] (setting [3]), the AUC(0-t) was 31.2 µM·h, the highest level (Cmax) was 23.9 µM, the Tmax came out at 1 h and the half-life was 0.895 h. For the same molecule, in data set [1] (setting [4]), the exposure AUC(0-t) stood at 217 µM·h, the Cmax worked out at 69.2 µM, the Tmax worked out at 1 h and the half-life was 1.5 h. Further, the “concentration at which a solution was achieved” value in data set [2] (20%DMSO in 80%PEG400) was at least 3300 µg/mL. For the same molecule, the “solubility in oil vehicle (in words)” value in data set [2] (sunflower oil) was “moderate solubility”.

Source of the values: paper PMC10892288, “Early Stage Preclinical Formulation Strategies to Alter the Pharmacokinetic Profile of Two Small Molecule Therapeutics” (Pharmaceuticals, 2024).
